# From publication PMC7823652 (Viruses, 2020)
# Where two headings read alike, the source gives them in different places.
# What was measured:
# [1] = system: ZIKV; experiment: Image-based phenotypic antiviral screen in ZIKV-infected U87 cells; format: cell-based, Zika virus (strain H/PF/2013); details: for inhibition at 10 µM: Zika virus, U-87 MG
# [2] = Screen cytotoxicity by nuclei count in ZIKV-infected U87 cells; format: cell-based; details: human, ZIKV-infected U87 cells
# [3] = system: HAZV; experiment: microbe, parasite or virus in culture; format: cell-based, Hazara virus (isolate JC280); details: for inhibition at 10 µM: Hazara virus, SW13, 24 h
# [4] = system: ZIKV; experiment: Antiviral dose-response in ZIKV-infected U87 cells (infected cells, viral titer); format: cell-based, Zika virus (strain H/PF/2013); details: Zika virus, U-87 MG; for IC50: ZIKV; for EC50: U87, ZIKV MOI 1, 48 h
# [5] = system: ZIKV; experiment: Antiviral dose-response in ZIKV-infected Vero cells; format: cell-based, Zika virus (strain H/PF/2013); details: Zika virus
# [6] = system: U87 cells; experiment: Cell viability by nuclei count in ZIKV-infected U87 cells; format: cell-based, Human
# [7] = system: Vero cells; experiment: Cell viability by nuclei count in ZIKV-infected Vero cells; format: cell-based, African Green Monkey
# [8] = Cell viability assay (Resazurin), uninfected U87 cells; format: cell-based, Human; details: human, read-out: Viability CC50 [µM] (95%-CI)
# [9] = system: U87 cells; experiment: as above; format: cell-based, Human; details: Homo sapiens, U-87 MG; U87, Resazurin, all measured time points (24, 48 or 72 h); read-out: IC50 (toxicity profile, cellular viability)
# [10] = in vitro; format: cell-based; details: African green monkey
# [11] = system: ZIKV; experiment: ZIKV-induced cytopathic effect in U87 cells (immunofluorescence imaging); format: cell-based, Zika virus (strain H/PF/2013); details: U87, ZIKV MOI 1, 10 μM TH6744, 24, 48 or 72 h
# [12] = system: ZIKV; experiment: End-point dilution assay by CPE, ZIKV-infected Vero cells; format: cell-based, Zika virus (strain H/PF/2013); details: ZIKV MOI 0.1, increasing doses, 24 h
# [13] = system: ZIKV; experiment: ZIKV infection (NS1 intensity) and viral titer in human cerebral organoids; format: cell-based, Zika virus (strain H/PF/2013); details: ZIKV 2 × 10^4 particles/organoid, 5 μM
# [14] = system: ZIKV; experiment: Time-of-addition assay in ZIKV-infected U87 cells; format: cell-based, Zika virus (strain H/PF/2013)
# [15] = system: ZIKV; experiment: Viral budding assay in ZIKV-infected U87 cells; format: cell-based, Zika virus (strain H/PF/2013)
# [16] = system: human brain organoids; experiment: Viability and structure of ZIKV-infected human cerebral organoids; details: ZIKV 2 × 10^4 particles/organoid, 5 μM, 7 dpi and 10 dpi
# [17] = system: ZIKV; experiment: Time course of ZIKV replication in U87 cells (vRNA, infected cells, titer)
# [18] = U87, ZIKV MOI 10, 22 h then 5 μM for 2 h
# [19] = U87, ZIKV MOI 10, 22 h then 10 μM for 2 h
smiles,measurement,setting,value
CCOC(=O)c1cnn(-c2cccc3c2[nH]c(=O)n3C2CCN(C(=O)Nc3ccc(I)cc3)CC2)c1 [TH6744],Viral Titer (ZIKV) (%),"[1]; U87, ZIKV MOI 10, compound 10 µM, 48 h, relative to DMSO",5%
same,"Infected Cells (U87, ZIKV) (%)","[1]; ZIKV MOI 10, compound 10 µM, 48 h, relative to DMSO",88%
same,inhibition at 10 µM,"[1]; U87, ZIKV MOI 10, compound 10 µM, 48 h, relative to DMSO, read-out: Inhibition of ZIKV titer (%)",95%
same,inhibition at 10 µM,"[1]; U87, ZIKV MOI 10, compound 10 µM, 48 h, relative to DMSO, read-out: Inhibition of primary ZIKV infection (%)",12%
same,"Infected Cells (U87, ZIKV)","[1]; screen, U87 cells, ZIKV",88%
same,Viral Titer (ZIKV),"[1]; screen, U87 cells, ZIKV",5%
same,"viability at 48 h, 10 µM","[2]; ZIKV MOI 10, compound 10 µM, 48 h, nuclei count relative to DMSO",105%
same,viability at 10 µM,[2]; screen,105%
same,inhibition at 10 µM,[3]; read-out: Inhibition of HAZV titer (%),90%
same,inhibition at 10 µM,[3]; read-out: Inhibition of primary HAZV infection (%),85%
same,"Infected Cells (SW13, HAZV)","[3]; screen, SW13 cells, HAZV",15%
same,Viral Titer (HAZV),"[3]; screen, SW13 cells, HAZV",10%
same,IC50,"[4]; 24 h, U87, MOI 1, 24 h, read-out: Antiviral on primary infection IC50",> 50 µM
same,IC50,"[4]; 24 h, U87, MOI 1, 24 h, read-out: Antiviral on titer (µM) IC50",> 50 µM
same,IC50,"[4]; 24 h, U87, MOI 10, 24 h, read-out: Antiviral on primary infection IC50",> 50 µM
same,IC50,"[4]; 24 h, U87, MOI 10, 24 h, read-out: Antiviral on titer (µM) IC50",10.3 µM
same,IC50,"[4]; 48 h, U87, MOI 1, 48 h, read-out: Antiviral on primary infection IC50",7.5 µM
same,IC50,"[4]; 48 h, U87, MOI 1, 48 h, read-out: Antiviral on titer (µM) IC50",4.4 µM
same,IC50,"[4]; 48 h, U87, MOI 10, 48 h, read-out: Antiviral on primary infection IC50",12.2 µM
same,IC50,"[4]; 48 h, U87, MOI 10, 48 h, read-out: Antiviral on titer (µM) IC50",9.2 µM
same,EC50,"[4]; ZIKV NS1 staining, read-out: EC50 [μM] Infected cells",7.5 µM
same,EC50,"[4]; end-point dilution assay, read-out: EC50 [μM] Viral titer",4.4 µM
same,IC50,"[5]; 24 h, MOI 1, 24 h, read-out: Antiviral on primary infection IC50",48.4 µM
same,IC50,"[5]; 24 h, MOI 1, 24 h, read-out: Antiviral on titer (µM) IC50",3.9 µM
same,IC50,"[5]; 24 h, MOI 10, 24 h, read-out: Antiviral on primary infection IC50",> 50 µM
same,IC50,"[5]; 24 h, MOI 10, 24 h, read-out: Antiviral on titer (µM) IC50",5.5 µM
same,IC50,"[5]; 48 h, MOI 1, 48 h, read-out: Antiviral on primary infection IC50",2.9 µM
same,IC50,"[5]; 48 h, MOI 1, 48 h, read-out: Antiviral on titer (µM) IC50",3.6 µM
same,IC50,"[5]; 48 h, MOI 10, 48 h, read-out: Antiviral on primary infection IC50",5.8 µM
same,IC50,"[5]; 48 h, MOI 10, 48 h, read-out: Antiviral on titer (µM) IC50",7.2 µM
same,EC50,"[6]; Homo sapiens, U-87 MG, U87, ZIKV MOI 1, 48 h, nuclei count, read-out: EC50 [μM] Living cells",> 50 µM
same,EC50,"[6]; Homo sapiens, U-87 MG, ZIKV, U87, MOI 10, 24 h, read-out: Viability (nuclei count) EC50",> 50 µM
same,EC50,"[6]; Homo sapiens, U-87 MG, ZIKV, U87, MOI 10, 48 h, read-out: Viability (nuclei count) EC50",> 50 µM
same,viability (nuclei count),"[6]; U87, ZIKV MOI 1, 24 hpi",without affecting the viability
same,EC50,"[6]; ZIKV, U87, MOI 1, 24 h, read-out: Viability (nuclei count) EC50",> 50 µM
same,EC50,"[6]; ZIKV, U87, MOI 1, 48 h, read-out: Viability (nuclei count) EC50",> 50 µM
same,EC50,"[7]; Chlorocebus sabaeus, MOI 10, 24 h",> 50 µM
same,EC50,"[7]; Chlorocebus sabaeus, MOI 10, 48 h",> 50 µM
same,EC50,"[7]; MOI 1, 24 h",> 50 µM
same,EC50,"[7]; MOI 1, 48 h",> 50 µM
same,CC50 at 24 h,"[8]; uninfected U87, 24 h",> 50 µM
same,CC50 at 48 h,"[8]; uninfected U87, 48 h",> 50 µM
same,CC50 at 72 h,"[8]; uninfected U87, 72 h",> 50 µM
same,IC50,[9],> 50 µM
same,CC50 at 24 h,[10],> 50 µM
same,CC50 at 48 h,[10],> 50 µM
same,CC50 at 72 h,[10],> 50 µM
same,effect on ZIKV-induced CPE in U87 cells,[11],reversed ZIKV-induced CPE
same,viral titer measured by CPEs,[12],reduced viral titer in a dose-dependent manner
same,ZIKV NS1 intensity in sectioned organoids (primary virus infection),[13]; 7 dpi,marked reduction
same,reduction of ZIKV progeny particles produced by the organoids,"[13]; all timepoints, relative to DMSO",70–80%
same,"reduction on viral titer, entry","[14]; U87, ZIKV MOI 10, 10 μM TH6744, 1 h pre-treatment and during inoculation, titer at 24 hpi",50%
same,"viral titer, post-inoculation","[14]; U87, ZIKV MOI 10, 10 μM TH6744 directly after inoculation for 24 h",pronounced reduction of viral titer
same,"titer reduction, virus budding","[14]; U87, ZIKV MOI 10, 10 μM TH6744 from 22 h after inoculation for 2 h",50%
same,infectivity of pre-budding and post-budding particles,"[15]; U87, ZIKV MOI 10, 2 h TH6744 treatment (5 or 10 μM), dose-dependent",reduced to a similar extent
same,Fraction of infectious ZIKV particles: Extracellular,[15]; [18],94.30%
same,Fraction of infectious ZIKV particles: Intracellular,[15]; [18],5.70%
same,Fraction of infectious ZIKV particles: Extracellular,[15]; [19],93.44%
same,Fraction of infectious ZIKV particles: Intracellular,[15]; [19],6.56%
same,phenotypic rescue (retained structure of organoids),[16],phenotypic rescue
same,ZIKV-infected cells,"[17]; U87, ZIKV MOI 1, 24 hpi",no reduction
same,reduction of extracellular vRNA levels,"[17]; U87, ZIKV MOI 1, 24 hpi",50%
same,reduction of viral titers,"[17]; U87, ZIKV MOI 1, 24 hpi",75%
same,intracellular ZIKV vRNA,"[17]; U87, ZIKV MOI 1, 24 hpi, qPCR",no reduction
same,intracellular ZIKV vRNA levels,"[17]; U87, ZIKV MOI 1, 48 hpi",remained unchanged
same,reduction of number of ZIKV-infected cells,"[17]; U87, ZIKV MOI 1, 48 hpi",65%
same,reduction of titer,"[17]; U87, ZIKV MOI 1, 48 hpi",83%
same,decrease of number of ZIKV-infected cells,"[17]; U87, ZIKV MOI 1, 72 h exposure",40%
same,decrease of viral titer,"[17]; U87, ZIKV MOI 1, 72 h exposure",63%
